Values joined by “and” are separate entries in the source; they are usually repeats but may differ in a detail not shown here. Equal entries are not always repeated. Inconclusive results and toxic doses are left out.

The record followed here is PubChem BioAssay AID328 (DTP/NCI, 2004).

This experiment concerns BDF1 mice, P388 leukemia ip, median survival T/C. In words: NCI In Vivo Anticancer Drug Screen. Data for tumor model P388 Leukemia (intraperitoneal) in B6D2F1 (BDF1) mice. Particulars: endpoint: median survival time, higher = longer survival. The essentials: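 Read-out is survival of treated animals expressed relative to the vehicle group, as a T/C ratio.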
[1] abbreviates: dose: 12.5 mg/kg/injection, schedule: Q01DX009 (ip), vehicle: Klucel (hydroxypropylcellulose) (HPC).
Where [2] appears, read: dose: 25.0 mg/kg/injection, schedule: Q01DX009 (ip), vehicle: Klucel (hydroxypropylcellulose) (HPC).
Setting [3] is: dose: 25.0 mg/kg/injection, schedule: Q04DX003 (ip), vehicle: Klucel (hydroxypropylcellulose) (HPC).
Setting [4] is: dose: 100.0 mg/kg/injection, schedule: Q01DX009 (ip), vehicle: Klucel (hydroxypropylcellulose) (HPC).
The mark [5] stands for this setting: dose: 100.0 mg/kg/injection, schedule: Q04DX003 (ip), vehicle: Klucel (hydroxypropylcellulose) (HPC).
Setting [6] is: dose: 50.0 mg/kg/injection, schedule: Q01DX009 (ip), vehicle: saline with Tween-80.
The mark [7] stands for this setting: dose: 100.0 mg/kg/injection, schedule: Q01DX009 (ip), vehicle: saline with Tween-80.
[8] abbreviates: dose: 200.0 mg/kg/injection, schedule: Q01DX009 (ip), vehicle: Klucel (hydroxypropylcellulose) (HPC).
[9] abbreviates: dose: 400.0 mg/kg/injection, schedule: Q01DX009 (ip), vehicle: Klucel (hydroxypropylcellulose) (HPC).
Setting [10] is: dose: 200.0 mg/kg/injection, schedule: Q01DX009 (ip), vehicle: saline with Tween-80.
Setting [11] is: dose: 75.0 mg/kg/injection, schedule: Q01DX009 (ip), vehicle: saline with Tween-80.
[12] abbreviates: dose: 100.0 mg/kg/injection, schedule: Q04DX003 (ip), vehicle: saline with Tween-80.
The mark [13] stands for this setting: dose: 200.0 mg/kg/injection, schedule: Q04DX003 (ip), vehicle: saline with Tween-80.

`O=C1CCCC(=O)C1C(C[N+](=O)[O-])c1ccccc1` (centres undefined): the T/C reads like this: under setting [1], 95 % of control and 100 % of control; under setting [2], 97 % of control and 119 % of control; under setting [3], 100 % of control; (dose: 50.0 mg/kg/injection, schedule: Q01DX009 (ip), vehicle: Klucel (hydroxypropylcellulose) (HPC)) 88 % of control; (dose: 50.0 mg/kg/injection, schedule: Q04DX003 (ip), vehicle: Klucel (hydroxypropylcellulose) (HPC)) 104 % of control; under setting [4], 96 % of control and 110 % of control. For the same molecule, the T/C under setting [5] was 108 % of control.
For the molecule `Cc1[nH]nc(-c2ccon2)c1N=O`, the T/C is, setting by setting: under setting [6], 111 % of control; under setting [7], 113 % of control.
As to `Ic1ncnc2c1ncn2C1CCCO1` (centres undefined), the T/C by setting is: (dose: 44.0 mg/kg/injection, schedule: Q01DX009 (ip), vehicle: saline sonified) 100 % of control; (dose: 66.0 mg/kg/injection, schedule: Q01DX009 (ip), vehicle: saline sonified) 123 % of control; (dose: 100.0 mg/kg/injection, schedule: Q01DX009 (ip), vehicle: saline sonified) 114 % of control; (dose: 100.0 mg/kg/injection, schedule: Q04DX003 (ip), vehicle: saline sonified) 115 % of control; (dose: 150.0 mg/kg/injection, schedule: Q01DX009 (ip), vehicle: saline sonified) 114 % of control; (dose: 200.0 mg/kg/injection, schedule: Q01DX009 (ip), vehicle: saline sonified) 122 % of control. Moreover, the T/C (dose: 200.0 mg/kg/injection, schedule: Q04DX003 (ip), vehicle: saline sonified) is 120 % of control; the T/C (dose: 400.0 mg/kg/injection, schedule: Q01DX009 (ip), vehicle: saline sonified) was 100 % of control; the T/C (dose: 400.0 mg/kg/injection, schedule: Q04DX003 (ip), vehicle: saline sonified) was 105 % of control.
For the molecule `NC(CO)Cc1ccccc1` (centres undefined), the T/C runs as follows: under setting [1], 106 % of control; under setting [2], 91 % of control.
`C=CCc1ccccc1OC`: the T/C reads like this: under setting [6], 118 % of control; under setting [7], 104 % of control.
For the molecule `CNC(=O)OCc1c(COC(=O)NC)c(-c2ccc(Cl)cc2Cl)n2c1CCC2`, where the note is “dose: 100.0 mg/kg/injection, schedule: Q01DX009 (ip), vehicle: other”, the T/C is 158 % of control.
For `CC(C)(C)C(O)CC(C)(O)C(C)(C)C` (centres undefined), the T/C (dose: 6.3 mg/kg/injection, schedule: Q01DX009 (ip), vehicle: Klucel (hydroxypropylcellulose) (HPC)) is 101 % of control; the T/C under setting [1] is 107 % of control; the T/C under setting [2] is 108 % of control.
For `CCC(=N\NC(=S)NCCN(C)C)/C(C)=N/NC(=S)NCCN(C)C`, the T/C (dose: 0.75 mg/kg/injection, schedule: Q04DX003 (ip), vehicle: saline) is 103 % of control; the T/C (dose: 1.5 mg/kg/injection, schedule: Q04DX003 (ip), vehicle: saline) is 103 % of control; the T/C (dose: 3.0 mg/kg/injection, schedule: Q04DX003 (ip), vehicle: saline) was 97 % of control.
Regarding `OCCCNc1cccc2ccccc12`, the T/C reads like this: under setting [4], 105 % of control; under setting [5], 100 % of control; under setting [8], 100 % of control; (dose: 200.0 mg/kg/injection, schedule: Q04DX003 (ip), vehicle: Klucel (hydroxypropylcellulose) (HPC)) 100 % of control; under setting [9], 110 % of control; (dose: 400.0 mg/kg/injection, schedule: Q04DX003 (ip), vehicle: Klucel (hydroxypropylcellulose) (HPC)) 100 % of control.
As to `CC(=O)OC1CC(OC2C(O)CC(OC3C(O)CC(OC4CCC5(C)C(CCC6C5CCC5(C)C(C7=CC(=O)OC7)C(O)CC65O)C4)OC3C)OC2C)OC(C)C1OC1OC(CO)C(O)C(O)C1O` (centres undefined), the T/C runs as follows: (dose: 12.5 mg/kg/injection, schedule: Q01DX010 (ip), vehicle: carboxymethylcellulose (CMC)) 109 % of control; (dose: 12.5 mg/kg/injection, schedule: Q04DX003 (ip), vehicle: Klucel (hydroxypropylcellulose) (HPC)) 110 % of control; (dose: 25.0 mg/kg/injection, schedule: Q01DX010 (ip), vehicle: carboxymethylcellulose (CMC)) 95 % of control; under setting [3], 120 % of control.
On to `c1ccc([P+](CCCCCCCCCC[P+](c2ccccc2)(c2ccccc2)c2ccccc2)(c2ccccc2)c2ccccc2)cc1`, for which the T/C reads like this: (dose: 2.5 mg/kg/injection, schedule: Q01DX010 (ip), vehicle: saline) 100 % of control; (dose: 5.0 mg/kg/injection, schedule: Q01DX010 (ip), vehicle: saline) 109 % of control.
As for `CCOC(=O)C1(CCOC)CCCCC1=O` (centres undefined), the T/C was 106 % of control under setting [6], 117 % of control under setting [7] and 115 % of control under setting [10].
Regarding `CCCCCCCC(=O)NC1CC(O[C@H]2C[C@](O)(C(=O)CO)Cc3c(O)c4c(c(O)c32)C(=O)c2c(OC)cccc2C4=O)OC(C)C1O` (some centres undefined), the T/C by setting is: (dose: 0.78 mg/kg/injection, schedule: Q01DX009 (ip), vehicle: water) 104 % of control; (dose: 6.25 mg/kg/injection, schedule: Q01DX009 (ip), vehicle: water) 150 % of control; (dose: 12.5 mg/kg/injection, schedule: Q01DX009 (ip), vehicle: water) 156 % of control; (dose: 18.8 mg/kg/injection, schedule: Q04DX003 (ip), vehicle: water) 106 % of control; (dose: 25.0 mg/kg/injection, schedule: Q01DX009 (ip), vehicle: water) 177 % of control; (dose: 37.5 mg/kg/injection, schedule: Q04DX003 (ip), vehicle: water) 109 % of control. Also, the T/C is, setting by setting: (dose: 75.0 mg/kg/injection, schedule: Q04DX003 (ip), vehicle: water) 104 % of control and 123 % of control; (dose: 150.0 mg/kg/injection, schedule: Q04DX003 (ip), vehicle: water) 119 % of control.
For `CCOC(=O)/C(C#N)=N\O`, the T/C runs as follows: (dose: 25.0 mg/kg/injection, schedule: Q01DX009 (ip), vehicle: saline) 100 % of control; (dose: 25.0 mg/kg/injection, schedule: Q04DX003 (ip), vehicle: saline) 113 % of control; (dose: 50.0 mg/kg/injection, schedule: Q01DX009 (ip), vehicle: saline) 120 % of control; (dose: 50.0 mg/kg/injection, schedule: Q04DX003 (ip), vehicle: saline) 104 % of control; (dose: 100.0 mg/kg/injection, schedule: Q04DX003 (ip), vehicle: saline) 95 % of control.
Take `COc1ccc(C(=O)CC(c2ccc3c(c2)OCO3)c2c(O)c3ccccc3oc2=O)cc1OC` (centres undefined): the T/C is, setting by setting: (dose: 25.0 mg/kg/injection, schedule: Q01DX009 (ip), vehicle: saline with Tween-80) 91 % of control; under setting [6], 116 % of control; under setting [11], 88 % of control; under setting [7], 97 % of control and 123 % of control; (dose: 150.0 mg/kg/injection, schedule: Q01DX009 (ip), vehicle: saline with Tween-80) 101 % of control; under setting [10], 87 % of control.
Take `c1ccc(COc2ccc(OCc3ccccc3)cc2)cc1`: the T/C is 104 % of control (dose: 75.0 mg/kg/injection, schedule: Q04DX003 (ip), vehicle: saline with Tween-80); 109 % of control (dose: 150.0 mg/kg/injection, schedule: Q04DX003 (ip), vehicle: saline with Tween-80); 104 % of control (dose: 300.0 mg/kg/injection, schedule: Q04DX003 (ip), vehicle: saline with Tween-80).
Turning to `O=[N+]([O-])c1ccc(Cl)c2c([N+](=O)[O-])cccc12`, the T/C was 104 % of control (dose: 50.0 mg/kg/injection, schedule: Q04DX003 (ip), vehicle: saline with Tween-80); 109 % of control under setting [12]; 109 % of control under setting [13].
`O=[N+]([O-])c1ccc(Oc2ccc(-c3ccccc3)cc2)c(Cl)c1`: the T/C was 92 % of control (dose: 18.75 mg/kg/injection, schedule: Q01DX009 (ip), vehicle: saline with Tween-80) and 93 % of control under setting [11].
For the molecule `Cc1c(C/C(=N/O)C(=O)O)[nH]c(=S)[nH]c1=O`, the T/C is 100 % of control under setting [12]; 87 % of control under setting [13]; 100 % of control (dose: 400.0 mg/kg/injection, schedule: Q04DX003 (ip), vehicle: saline with Tween-80).
Take `O=C(Nc1cccc(Cl)c1)C1CCCC1=Nc1cccc(Cl)c1` (centres undefined): the T/C reads like this: under setting [6], 100 % of control; under setting [7], 106 % of control.
With `O=[N+]([O-])c1c(Cl)cccc1-c1c[nH]cc1Cl`, the T/C by setting is: under setting [4], 95 % of control; under setting [8], 95 % of control; under setting [9], 86 % of control.
